The test system of data set [1] is Calf thymus DNA. In words: Binding affinity to calf thymus DNA assessed as DNA spectral changes at 30 uM incubated for 10 mins by circular dichroism method. Type of data set: nucleic-acid assay. The note with it: Bos taurus. On the technique in general: Circular dichroism is the unequal absorption of left and right circularly polarised light.
Data set [2] deals with T1, Albumin (Bos taurus, UniProt P02769). In words: Binding affinity to bovine serum albumin assessed as hypochromicity at 5 to 40 uM by fluorescence emission spectrum analysis method relative to control. The note with it: cattle, isolated protein. Type of data set: ADME.
A short description of data set [3]: Selectivity index, ratio of CC50 for mouse RAW264.7 cells to ratio of IC50 for human T47D cells. The class given is toxicity. The note with it: RAW264.7 cells and T47D cells, read-out: Ratio CC50/IC50.
Data set [4] deals with Calf thymus DNA. In words: Binding affinity to calf thymus DNA assessed as binding constant incubated for 10 mins by UV-Vis absorption spectroscopic method. The class given is nucleic-acid assay. The note with it: Bos taurus.
Data set [5] relates to Calf thymus DNA. In words: Binding affinity to calf thymus DNA assessed as fold change in hyperchromicity at 10 uM by fluorescence emission spectrum analysis relative to control. Type of data set: nucleic-acid assay. The note with it: Bos taurus.
For data set [6], the target named is T1, Albumin. In words: Binding affinity to bovine serum albumin assessed as binding constant incubated for 10 mins by UV-Vis absorption spectroscopic method. The note with it: cattle, isolated protein. Type of data set: ADME.
A short description of data set [7]: Selectivity index, ratio of CC50 for mouse RAW264.7 cells to ratio of IC50 for human MCF7 cells. The class given is toxicity. The note with it: RAW264.7 cells and MCF7 cells, read-out: Ratio CC50/IC50.
Data set [8] has as its target T1, Albumin. Put plainly: Binding affinity to bovine serum albumin assessed as hypsochromic shift at 5 to 40 uM by fluorescence emission spectrum analysis method. Type of data set: ADME. The note with it: cattle, isolated protein.
The target of data set [9] is T1, Albumin. In words: Binding affinity to bovine serum albumin assessed as hyperchromicity at 5 to 40 uM incubated for 10 mins by UV-Vis absorption spectroscopic method relative to control. The class given is ADME. The note with it: cattle, isolated protein.
Data set [10] deals with T1, Albumin. Put plainly: Binding affinity to bovine serum albumin assessed as Stem-Volmer quenching constant incubated for 10 mins by fluorescence emission spectrum analysis. The class given is ADME. The note with it: cattle, isolated protein.
A further data set relates to MCF7. In words: Cytotoxicity against human MCF7 cells assessed as reduction in cell viability incubated for 48 hrs by MTT assay. The class given is functional, cell-based. The note with it: MCF7, 48 h. For orientation: Tetrazolium assays rely on reduction of a dye to a coloured formazan, in cell work by metabolically active cells.
In the next data set the test system is T47D. In words: Cytotoxicity against human T47D cells assessed as reduction in cell viability incubated for 48 hrs by MTT assay. The class given is functional, cell-based.
The nature of data set [11]: Cytotoxicity against mouse RAW264.7 cells assessed as reduction in cell viability incubated for 48 hrs by MTT assay. Type of data set: cell-based.
In another data set the test system is Salmon testes DNA. In words: Binding affinity to salmon sperm […] DNA assessed as DNA intercalation by measuring increase in viscosity at 12 to 60 uM by viscometric method. Type of data set: nucleic-acid assay. The note with it: Salmonidae.
Data set [12] deals with Calf thymus DNA. In words: Binding affinity to calf thymus DNA assessed as hypochromicity at 30 uM incubated for 10 mins by UV-Vis absorption spectroscopic method relative to control. Type of data set: nucleic-acid assay. The note with it: Bos taurus.
Data set [13] concerns the target DNA topoisomerase 2-alpha (Homo sapiens) (UniProt P11388). In words: Inhibition of recombinant human topoisomerase 2alpha using supercoiled pUC19 plasmid DNA as substrate at 10 uM incubated for 45 mins by ethidium bromide dye based agarose gel electrophoresis method.
The subject of data set [14] is Calf thymus DNA. In words: Binding affinity to calf thymus DNA assessed as fold change in hypochromicity at 10 uM by fluorescence emission spectrum analysis relative to control. The class given is nucleic-acid assay. The note with it: Bos taurus.
The subject of data set [15] is Calf thymus DNA. Put plainly: Binding affinity to calf thymus DNA assessed as hypsochromic shift at 10 uM by fluorescence emission spectrum analysis. The class given is nucleic-acid assay. The note with it: Bos taurus.
The subject of data set [16] is Calf thymus DNA. Put plainly: Binding affinity to calf thymus DNA assessed as bathochromic shift at 30 uM incubated for 10 mins by UV-Vis absorption spectroscopic method. The class given is nucleic-acid assay. The note with it: Bos taurus.
Data set [17] concerns Calf thymus DNA. In words: Binding affinity to calf thymus DNA assessed as DNA spectral changes by measuring increase in negative band at 245 nm at 30 uM incubated for 10 mins by circular dichroism method. The class given is nucleic-acid assay. The note with it: Bos taurus.
Data set [18] relates to Calf thymus DNA. In words: Binding affinity to calf thymus DNA assessed as DNA spectral changes by measuring decrease in positive band at 274 nm at 30 uM incubated for 10 mins by circular dichroism method. The note with it: Bos taurus. The class given is nucleic-acid assay.
The test system of data set [19] is Calf thymus DNA. In words: Binding affinity to calf thymus DNA assessed as hyperchromicity at 30 uM incubated for 10 mins by UV-Vis absorption spectroscopic method relative to control. The class given is nucleic-acid assay. The note with it: Bos taurus.
The target in data set [20] is T1, Albumin. In words: Binding affinity to bovine serum albumin assessed as hypsochromic shift at 5 to 40 uM incubated for 10 mins by UV-Vis absorption spectroscopic method relative to control. Type of data set: ADME. The note with it: cattle, isolated protein.

Active and inactive are the calls of the source. No cut-off for these calls is given here.

As a reminder, the IC50 is the concentration that gives 50% inhibition. One may read the CC50 as the concentration that lowers cell viability or growth by half.

T1 sequence (P02769 whole entry): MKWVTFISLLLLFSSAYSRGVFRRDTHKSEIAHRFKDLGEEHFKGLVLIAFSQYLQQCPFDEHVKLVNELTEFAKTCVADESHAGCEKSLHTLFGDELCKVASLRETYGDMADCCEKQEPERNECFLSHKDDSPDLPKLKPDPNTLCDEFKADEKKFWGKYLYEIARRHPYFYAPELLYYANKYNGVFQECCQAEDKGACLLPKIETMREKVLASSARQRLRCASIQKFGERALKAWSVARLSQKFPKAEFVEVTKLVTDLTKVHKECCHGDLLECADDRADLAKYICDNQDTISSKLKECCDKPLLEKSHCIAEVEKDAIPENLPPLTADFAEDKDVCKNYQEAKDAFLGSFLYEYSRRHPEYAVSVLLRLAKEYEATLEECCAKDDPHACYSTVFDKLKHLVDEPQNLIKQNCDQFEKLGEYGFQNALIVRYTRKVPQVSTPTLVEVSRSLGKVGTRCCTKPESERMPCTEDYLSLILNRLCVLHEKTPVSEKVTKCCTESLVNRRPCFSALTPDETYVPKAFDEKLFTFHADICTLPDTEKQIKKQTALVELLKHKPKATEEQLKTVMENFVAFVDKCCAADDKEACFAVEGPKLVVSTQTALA
Sequence of DNA topoisomerase 2-alpha (Homo sapiens) (P11388 whole entry): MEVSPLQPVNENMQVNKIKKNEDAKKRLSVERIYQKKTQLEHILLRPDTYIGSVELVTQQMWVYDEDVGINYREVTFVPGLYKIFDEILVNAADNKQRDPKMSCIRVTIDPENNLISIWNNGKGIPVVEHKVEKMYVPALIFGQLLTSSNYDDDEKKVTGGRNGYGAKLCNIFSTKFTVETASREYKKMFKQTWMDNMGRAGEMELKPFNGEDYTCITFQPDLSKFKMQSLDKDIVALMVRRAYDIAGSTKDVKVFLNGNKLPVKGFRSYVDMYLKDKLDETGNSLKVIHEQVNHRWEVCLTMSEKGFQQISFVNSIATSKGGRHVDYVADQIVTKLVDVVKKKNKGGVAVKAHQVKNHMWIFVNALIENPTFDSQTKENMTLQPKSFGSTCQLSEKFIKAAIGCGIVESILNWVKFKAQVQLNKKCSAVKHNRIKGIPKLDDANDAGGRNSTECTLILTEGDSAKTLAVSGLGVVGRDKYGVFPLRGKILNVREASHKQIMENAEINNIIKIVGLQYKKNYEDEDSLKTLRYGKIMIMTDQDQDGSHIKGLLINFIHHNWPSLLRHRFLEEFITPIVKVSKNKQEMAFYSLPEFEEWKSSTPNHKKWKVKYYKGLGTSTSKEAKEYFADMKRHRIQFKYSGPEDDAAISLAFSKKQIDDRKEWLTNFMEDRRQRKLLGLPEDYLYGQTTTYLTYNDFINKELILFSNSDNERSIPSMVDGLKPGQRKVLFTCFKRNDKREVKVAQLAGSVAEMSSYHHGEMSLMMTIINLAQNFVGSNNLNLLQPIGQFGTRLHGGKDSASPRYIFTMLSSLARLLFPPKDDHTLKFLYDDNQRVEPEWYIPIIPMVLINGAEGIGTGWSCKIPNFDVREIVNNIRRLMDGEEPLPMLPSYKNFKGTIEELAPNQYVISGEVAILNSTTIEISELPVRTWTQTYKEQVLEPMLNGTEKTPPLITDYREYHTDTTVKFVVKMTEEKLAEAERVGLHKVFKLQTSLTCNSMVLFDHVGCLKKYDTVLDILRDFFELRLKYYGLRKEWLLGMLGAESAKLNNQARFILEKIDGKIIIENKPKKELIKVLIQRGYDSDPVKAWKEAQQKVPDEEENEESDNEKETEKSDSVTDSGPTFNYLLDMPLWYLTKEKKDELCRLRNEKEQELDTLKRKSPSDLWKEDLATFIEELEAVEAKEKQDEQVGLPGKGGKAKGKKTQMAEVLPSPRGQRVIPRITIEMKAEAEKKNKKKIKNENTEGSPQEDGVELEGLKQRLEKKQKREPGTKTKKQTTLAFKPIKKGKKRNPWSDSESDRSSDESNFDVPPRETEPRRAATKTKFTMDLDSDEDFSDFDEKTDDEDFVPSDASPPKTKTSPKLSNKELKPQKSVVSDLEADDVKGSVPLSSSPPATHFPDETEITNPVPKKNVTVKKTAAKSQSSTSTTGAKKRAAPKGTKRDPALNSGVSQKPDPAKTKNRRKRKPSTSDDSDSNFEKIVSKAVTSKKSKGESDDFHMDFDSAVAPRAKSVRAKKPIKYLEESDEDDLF

In the case of `S=C(N/N=C\c1ccnc2ccccc12)Nc1cccnc1`, the result with Calf thymus DNA [1] and in the data set on Salmon testes DNA was Active. The Activity at Albumin [2] was 493.41%; at Albumin [8] it was “Active”; on Albumin [9] it was 52.95%; with Calf thymus DNA [12], 20.3%. For the same compound, the results for the selectivity ratio in [3] and in data set [7] were 83.3 and 94.4, respectively. For the same compound, the Kb worked out at 1.96 ×10⁵ /M in the data set with Calf thymus DNA [4] and 8.03 ×10⁴ /M on Albumin [6]. The fold change (FC) in the data set on Calf thymus DNA [5] amounted to 0.89. The KSV at Albumin [10] is recorded as 3.99 ×10⁴ /M. Besides, the IC50 with MCF7 amounted to 970 nM; in the data set on T47D it was 1100 nM. Besides, the cytotoxic concentration (CC50) at 48 h in data set [11] was found to be 91600 nM. Further, in data set [13], the inhibition entry is “inactive”.

With `CCc1ccc(NC(=S)N/N=C\c2ccnc3ccccc23)cc1`, in the data set with Calf thymus DNA [14], the fold change (FC) turned out to be 4.65. Further, the Activity at Albumin [2] is 601.57%; at Albumin [8] it was “Active”; on Albumin [9], 69.01%; in the data set with Calf thymus DNA [19], 51.4%; on Albumin [20], “Active”. In addition, the selectivity ratio in data set [3] is 27.9; in data set [7] it was 43.6. Further, the result with Calf thymus DNA [15], in the data set with Calf thymus DNA [16], in the data set with Calf thymus DNA [17], with Calf thymus DNA [18] and in the data set with Salmon testes DNA was Active. Also, the Kb in the data set on Calf thymus DNA [4] stood at 1.62 ×10⁶ /M; on Albumin [6], 1.43 ×10⁵ /M. Besides, at Albumin [10], the KSV is recorded as 16.05 ×10⁴ /M. Also, the concentration for half-maximal inhibition (IC50) stood at 820 nM in the data set on MCF7 and 1280 nM in the data set with T47D. Also, the CC50 at 48 h in [11] was determined as 35700 nM. Moreover, in data set [13], the inhibition entry was “inactive”.

Values taken from ChEMBL document CHEMBL4406827, “Novel 4-quinoline-thiosemicarbazone derivatives: Synthesis, antiproliferative activity, in vitro and in silico biomacromolecule interaction studies and topoisomerase inhibition” (Eur J Med Chem, 2019).
